# Laboratory results from US20100227853A1, “INHIBITORS OF CYCLIC AMP PHOSPHODIESTERASES” (Trustees of Boston College, priority 2008, published 2010).
# pEC50: −log10 of the molar value.
# Legend:
# PDE7A = PDE7A (Homo sapiens, UniProt Q13946); assay: 5FOA growth assay in fission yeast strain expressing PDE7A; format: cell-based; design: targets used in the assays are full-length proteins (as opposed to simply the catalytic domain); expressed in transfected cells; host or cells: Schizosaccharomyces pombe, PDE gene integrated in place of cgs2; details: for Composite Z score, PDE7A: high throughput 5FOA growth screen; for pEC50: OD600 0.6, read-out: ED50 for 5FOA growth assays, PDE7A
# PDE7A, sequence (Q13946 whole entry, the tested form may be a part): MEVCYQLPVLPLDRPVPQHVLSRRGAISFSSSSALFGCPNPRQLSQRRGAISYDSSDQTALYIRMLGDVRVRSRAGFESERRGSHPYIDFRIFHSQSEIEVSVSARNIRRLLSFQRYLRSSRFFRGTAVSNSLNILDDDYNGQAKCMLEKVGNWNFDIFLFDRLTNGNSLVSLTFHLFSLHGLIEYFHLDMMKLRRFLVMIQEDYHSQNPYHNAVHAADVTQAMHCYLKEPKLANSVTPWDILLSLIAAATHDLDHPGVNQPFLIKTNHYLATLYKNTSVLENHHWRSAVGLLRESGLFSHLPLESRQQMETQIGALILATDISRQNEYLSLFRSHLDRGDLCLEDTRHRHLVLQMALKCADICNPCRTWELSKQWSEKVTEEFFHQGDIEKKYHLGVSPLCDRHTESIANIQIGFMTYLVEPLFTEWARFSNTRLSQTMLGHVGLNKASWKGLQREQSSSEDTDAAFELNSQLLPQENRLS
# In short: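 Growth stimulation, reported as composite Z scores, was read as OD600 after 48 h at 30 °C in 5FOA medium. Before this, reporter (fbp1-ura4) yeast were grown at 30 °C in EMM with 0–2.5 mM cAMP or 0.5/1.0 mM cGMP to repress the reporter, then exposed to 100 nl pinned compound (stocks generally 10 mM).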
# PDE4B3 = target: T1, PDE4B3 (Mus musculus, UniProt Q8VBU5); assay: 5FOA growth assay in fission yeast strain expressing PDE4B3; format: cell-based, Murine; details: for Composite Z score, PDE4B3: high throughput 5FOA growth screen
# T1 construct: targets used in the assays are full-length proteins (as opposed to simply the catalytic domain); expressed in transfected cells; host or cells: Schizosaccharomyces pombe, PDE gene integrated in place of cgs2
# T1 sequence (Q8VBU5 1-721): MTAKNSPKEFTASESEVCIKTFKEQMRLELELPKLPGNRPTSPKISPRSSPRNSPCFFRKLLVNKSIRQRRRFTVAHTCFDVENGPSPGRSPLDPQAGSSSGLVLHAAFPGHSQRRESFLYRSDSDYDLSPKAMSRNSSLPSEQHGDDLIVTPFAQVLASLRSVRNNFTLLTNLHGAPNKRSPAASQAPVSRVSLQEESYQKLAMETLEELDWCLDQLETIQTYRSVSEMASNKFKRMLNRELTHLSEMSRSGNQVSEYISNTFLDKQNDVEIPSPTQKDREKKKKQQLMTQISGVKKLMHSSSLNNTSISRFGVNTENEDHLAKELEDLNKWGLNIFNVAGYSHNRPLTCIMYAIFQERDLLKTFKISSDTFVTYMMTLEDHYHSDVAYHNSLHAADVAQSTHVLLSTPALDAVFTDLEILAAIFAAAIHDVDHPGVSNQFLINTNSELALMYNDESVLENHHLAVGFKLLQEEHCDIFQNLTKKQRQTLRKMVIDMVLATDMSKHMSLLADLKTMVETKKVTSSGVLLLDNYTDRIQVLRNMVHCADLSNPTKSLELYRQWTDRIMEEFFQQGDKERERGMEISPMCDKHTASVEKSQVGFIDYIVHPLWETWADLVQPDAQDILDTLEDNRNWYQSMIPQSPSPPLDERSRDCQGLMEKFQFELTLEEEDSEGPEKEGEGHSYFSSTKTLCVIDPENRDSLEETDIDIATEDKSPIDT
# In short: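 Readout is OD600 after 48 h at 30° C in 5FOA medium, starting from 0.5–4×10^5 cells/ml; 5 mM cAMP served as positive control. Yeast expressing mouse PDE4A1 or PDE4B3 with an fbp1-ura4 reporter was first grown to exponential phase in EMM plus 0.5–2.5 mM cAMP. Hits were scored by composite Z scores.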
smiles,measurement,setting,value
"COC(=O)C1=C(C)N(c2ccc(C(C)C)cc2)C(=O)/C1=C\c1ccco1 [2008, 019]",1 Assay (20 uM) 7A,PDE7A,2.78 ND ND ND ND
same,1 Assay (20 uM) 4B3,PDE4B3,−2.99 ND ND ND ND
"COC(=O)C1/C(=C/c2cccc(OC)c2O)C(=O)N(c2ccccc2F)C1C (stereo not drawn) [2008, C21]",1 Assay (20 uM) 7A,PDE7A,−0.08 ND ND ND ND
same,1 Assay (20 uM) 4B3,PDE4B3,24.16 ND ND ND ND
"COC(=O)C1=C(C)N(c2ccccc2)/C(=C/c2cccs2)C1=O [2008, K19]",1 Assay (20 uM) 7A,PDE7A,2.43 ND ND ND ND
same,1 Assay (20 uM) 4B3,PDE4B3,−0.61 ND ND ND ND
"CCCCn1c2ccccc2c2nc3ccccc3nc21 [2013, I20]",1 Assay (20 uM) 7A,PDE7A; PDE 7A,−0.84 ND ND ND ND
same,1 Assay (20 uM) 4B3,PDE4B3; PDE 4B3,0.29 ND ND ND ND
"CC(C)Cn1c2ccc(Br)cc2c2nc3ccccc3nc21 [2015, L04]",1 Assay (20 uM) 7A,PDE7A; PDE 7A,−0.79 ND ND ND ND
same,1 Assay (20 uM) 4B3,PDE4B3; PDE 4B3,1.17 ND ND ND ND
"CCc1ccc2c(c1)c1nc3ccccc3nc1n2CC [2015, P06]",1 Assay (20 uM) 7A,PDE7A; PDE 7A,1.07 ND ND ND ND
same,1 Assay (20 uM) 4B3,PDE4B3; PDE 4B3,0.13 ND ND ND ND
"C=CCn1c2ccc(Br)cc2c2nc3ccccc3nc21 [2017, C18]",1 Assay (20 uM) 7A,PDE7A; PDE 7A,−1.58 ND ND ND ND
same,1 Assay (20 uM) 4B3,PDE4B3; PDE 4B3,56.91 ND ND ND ND
"c1ccc(CCn2c3ccccc3c3nc4ccccc4nc32)cc1 [2019, G03]",1 Assay (20 uM) 7A,PDE7A; PDE 7A,4.47 ND ND ND ND
same,1 Assay (20 uM) 4B3,PDE4B3; PDE 4B3,83.22 ND ND ND ND
"C=Cn1c2ccccc2c2nc3ccccc3nc21 [2033, H06]",1 Assay (20 uM) 7A,PDE7A; PDE 7A,0.63 ND ND ND ND
same,1 Assay (20 uM) 4B3,PDE4B3; PDE 4B3,103.11 ND ND ND ND
COc1ccccc1CNC(=O)c1sc2ncnc(N3CCN(c4ccccc4F)CC3)c2c1C [2041 E21],"Composite Z score, PDE7A",PDE7A,0.5923
same,"Composite Z score, PDE4B3",PDE4B3,−0.408
CNc1nc(=S)[nH]c2sc3c(c12)CCCC3 [2054 E08],"Composite Z score, PDE7A",PDE7A,−0.995
same,"Composite Z score, PDE4B3",PDE4B3,0.2798
CC1CC(=O)N(c2ncnc3sc4c(c23)CCCC4)N1 (stereo not drawn) [2054 E16],"Composite Z score, PDE7A",PDE7A,−0.737
same,"Composite Z score, PDE4B3",PDE4B3,0.62
CCC1CCc2c(sc3ncnc(N4CCOCC4)c23)C1 (stereo not drawn) [BC33],pEC50,PDE7A,< 3.70
same,"Composite Z score, PDE7A",PDE7A,−0.794
same,"Composite Z score, PDE4B3",PDE4B3,42.416
CCN(CC)c1ncnc2sc3c(c12)CCCC3 [BC44],"Composite Z score, PDE7A",PDE7A,177.31
same,"Composite Z score, PDE4B3",PDE4B3,85.067
Cc1c(C(=O)Nc2ccc(F)cc2F)sc2ncnc(N3CCC(C)CC3)c12 [BC58],"Composite Z score, PDE7A",PDE7A,24.881
same,"Composite Z score, PDE4B3",PDE4B3,78.927
Cc1sc2ncnc(Nc3ccccc3)c2c1C [BC64],pEC50,PDE7A,< 3.70
same,"Composite Z score, PDE7A",PDE7A,55.035
same,"Composite Z score, PDE4B3",PDE4B3,0.3426
COC(=O)C1=C(C)N(C2CCCCC2)C(=O)/C1=C\c1cccs1 [Compound 22],"2 Assay (2 uM), 7A",PDE7A,57.22
same,1 Assay (20 uM) 7A,PDE7A,132.82
same,"2 Assay (2 uM), 4B3",PDE4B3,37.54
same,1 Assay (20 uM) 4B3,PDE4B3,70.26
COC(=O)C1=C(C)N(c2ccccc2Cl)C(=O)/C1=C\c1cccs1 [Compound 27],"2 Assay (2 uM), 7A",PDE7A,5.07
same,1 Assay (20 uM) 7A,PDE7A,2.34
same,"2 Assay (2 uM), 4B3",PDE4B3,22.05
same,1 Assay (20 uM) 4B3,PDE4B3,−0.26
N#Cc1sc2sc(C#N)c(-c3ccco3)c2c1N [Compound 30],"2 Assay (2 uM), 4B3",PDE4B3,5.21
same,1 Assay (20 uM) 4B3,PDE4B3,4.67
Cc1ccc2c(c1)c1nc3ccccc3nc1n2C(C)C [Compound 41],1 Assay (20 uM) 7A,PDE7A; PDE 7A,0.31
same,1 Assay (20 uM) 4B3,PDE4B3; PDE 4B3,200.51
Cc1c(C(=O)Nc2ccc(F)cc2F)sc2ncnc(N(C)c3ccccc3)c12 [Compound 58-9],"Composite Z score, PDE7A",PDE7A,123.57
same,"Composite Z score, PDE4B3",PDE4B3,78.662
c1csc(CCNc2ncnc3sc4c(c23)CCC4)c1 [Compound 2005M12],"Composite Z score, PDE7A",PDE7A,−0.398
same,"Composite Z score, PDE4B3",PDE4B3,0.0838
CCOC(=O)c1sc2nc(C)nc(N3CCC(C)CC3)c2c1C [Compound 2007D06],"Composite Z score, PDE7A",PDE7A,−0.759
same,"Composite Z score, PDE4B3",PDE4B3,0.2826
CCCCN(CC)C(=O)c1sc2ncnc(N3CCN(c4ccc(OC)cc4)CC3)c2c1C [Compound 2007H06],"Composite Z score, PDE7A",PDE7A,1.5462
same,"Composite Z score, PDE4B3",PDE4B3,0.3145
